From US7579356B2, “Thia-tetraazaacenaphthylene kinase inhibitors” (Janssen Pharmaceutica NV, priority 2005, dated 2009)

Assays:
Assay type in all cases: biochemical
c-Src kinase (human) = molecular target: T1, c-Src kinase (human) (Homo sapiens, UniProt P12931); experiment: c-Src Kinase Assay; details: test concentration of 2 μM; multiple values are separate assay results
T1 construct: purchased Upstate Biotechnology, Lake Placid, N.Y
Procedure, shortened: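 Inhibition was read as 33P incorporation, counted on P30 filtermats, after a 40 min, 30° C reaction. Human c-Src acted on 100 μM Cdc2 peptide with 5 μM ATP (final), pH 7.0 MOPS/MgCl2. Values are percent inhibition at 2 μM compound, or IC50 where determined.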

HER-2 = molecular target: T2, HER-2 (Homo sapiens, UniProt P04626); experiment: HER-2 Kinase Assay; details: for inhibition at 1 µM: test concentration of 1 μM; for IC50: value in parentheses
T2 construct: His6 with thrombin site (N); purchased Proqinase (Freiburg, Germany)
T2 sequence (P04626 679-1255): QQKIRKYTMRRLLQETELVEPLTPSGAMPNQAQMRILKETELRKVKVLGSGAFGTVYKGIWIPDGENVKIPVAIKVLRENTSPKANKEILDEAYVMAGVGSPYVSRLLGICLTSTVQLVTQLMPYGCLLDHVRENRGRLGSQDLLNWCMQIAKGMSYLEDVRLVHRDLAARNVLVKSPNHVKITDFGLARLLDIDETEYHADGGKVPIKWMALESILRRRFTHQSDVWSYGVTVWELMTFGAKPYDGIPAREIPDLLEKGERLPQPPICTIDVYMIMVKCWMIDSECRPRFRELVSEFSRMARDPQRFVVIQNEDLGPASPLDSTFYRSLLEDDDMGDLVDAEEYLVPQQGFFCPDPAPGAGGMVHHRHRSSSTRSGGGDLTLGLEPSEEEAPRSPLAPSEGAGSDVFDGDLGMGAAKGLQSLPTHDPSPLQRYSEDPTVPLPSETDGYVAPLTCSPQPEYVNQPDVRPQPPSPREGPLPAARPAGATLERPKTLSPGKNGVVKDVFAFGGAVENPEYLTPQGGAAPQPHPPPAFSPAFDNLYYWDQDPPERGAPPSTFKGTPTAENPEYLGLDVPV
Procedure, shortened: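 Read-out was scintillation counting of 33P incorporated into biotinylated polyGluTyr captured on streptavidin plates. Reactions ran 1 h at 30 °C with GST-fused HER-2 residues 679–1255, 1 μM ATP, Mn2+ and Mg2+ at pH 7.5; data given as percent inhibition at 1 μM, with IC50 where determined.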

Lyn kinase (human) = molecular target: T3, Lyn kinase (human) (Homo sapiens, UniProt P07948); experiment: Lyn Kinase Assay; details: test concentration of 2 μM
T3 construct: purchased Upstate Biotechnology, Lake Placid, N.Y
T3 sequence (P07948 whole entry): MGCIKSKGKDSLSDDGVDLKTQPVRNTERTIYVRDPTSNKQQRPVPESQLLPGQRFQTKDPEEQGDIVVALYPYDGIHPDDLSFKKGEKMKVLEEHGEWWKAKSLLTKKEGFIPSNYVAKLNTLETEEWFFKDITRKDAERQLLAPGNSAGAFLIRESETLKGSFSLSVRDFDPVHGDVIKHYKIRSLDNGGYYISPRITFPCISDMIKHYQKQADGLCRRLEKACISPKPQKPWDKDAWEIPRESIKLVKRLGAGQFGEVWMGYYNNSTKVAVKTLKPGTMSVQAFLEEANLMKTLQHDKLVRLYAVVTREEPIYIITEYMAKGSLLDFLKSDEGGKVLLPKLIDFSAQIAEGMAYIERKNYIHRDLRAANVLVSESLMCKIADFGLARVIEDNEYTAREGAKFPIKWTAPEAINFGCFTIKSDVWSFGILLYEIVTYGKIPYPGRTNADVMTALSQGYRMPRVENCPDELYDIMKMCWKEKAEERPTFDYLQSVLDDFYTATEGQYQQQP
Procedure, shortened: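 Radiometric filter-binding assay with recombinant human Lyn, poly(Glu,Tyr) substrate (0.1 mg/mL final), 5 μM ATP plus γ-33P-ATP in MOPS pH 7.5/Mg acetate buffer; 40 min at 30 °C, stopped with phosphoric acid, counted by scintillation. Reported as percent inhibition at 2 μM, with IC50 (μM) where determined.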

EGFR = molecular target: T4, EGFR (Homo sapiens, UniProt P00533); experiment: EGFR Kinase Assay; details: for IC50: GST-EGFR, ATP 5 μM; for inhibition at 2 µM: test concentration of 2 μM, compounds without an IC50, read-out: EGFR inhibition in percent
T4 construct: The intracellular portion of EGFR started at nucleotide 2189 (corresponding to amino acid 667) and ended at the termination codon; made in house; host or cells: Sf9 insect cells (baculovirus)
T4 sequence (P00533 669-1210 limits assumed): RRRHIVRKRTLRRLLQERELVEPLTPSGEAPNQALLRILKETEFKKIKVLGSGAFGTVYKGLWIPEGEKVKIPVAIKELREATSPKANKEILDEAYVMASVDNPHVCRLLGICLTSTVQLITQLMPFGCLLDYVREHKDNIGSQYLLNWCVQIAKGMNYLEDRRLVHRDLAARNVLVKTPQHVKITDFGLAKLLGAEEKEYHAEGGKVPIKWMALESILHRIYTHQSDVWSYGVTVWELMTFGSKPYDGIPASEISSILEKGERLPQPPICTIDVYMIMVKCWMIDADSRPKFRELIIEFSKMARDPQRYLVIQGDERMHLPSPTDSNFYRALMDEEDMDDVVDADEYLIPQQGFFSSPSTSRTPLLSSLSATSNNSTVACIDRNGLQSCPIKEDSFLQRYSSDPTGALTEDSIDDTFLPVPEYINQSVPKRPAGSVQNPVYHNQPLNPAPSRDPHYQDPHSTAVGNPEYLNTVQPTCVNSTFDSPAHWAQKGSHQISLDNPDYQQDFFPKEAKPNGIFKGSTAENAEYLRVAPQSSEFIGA
Procedure, shortened: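 Potency came from triplicate 16-point half-log titrations starting at 200 uM, with IC50 fitted from % inhibition against log concentration, or % inhibition at 2 μM otherwise. Reaction: Sf9-made GST–EGFR cytoplasmic region (aa 667 onward), biotin-polyGluTyr, 5 μM ATP with 33P tracer, pH 8.0 Tris/Mg/vanadate/DTT, 30 °C for 1 h; captured on streptavidin Flashplates and counted.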

T1 sequence (P12931 whole entry): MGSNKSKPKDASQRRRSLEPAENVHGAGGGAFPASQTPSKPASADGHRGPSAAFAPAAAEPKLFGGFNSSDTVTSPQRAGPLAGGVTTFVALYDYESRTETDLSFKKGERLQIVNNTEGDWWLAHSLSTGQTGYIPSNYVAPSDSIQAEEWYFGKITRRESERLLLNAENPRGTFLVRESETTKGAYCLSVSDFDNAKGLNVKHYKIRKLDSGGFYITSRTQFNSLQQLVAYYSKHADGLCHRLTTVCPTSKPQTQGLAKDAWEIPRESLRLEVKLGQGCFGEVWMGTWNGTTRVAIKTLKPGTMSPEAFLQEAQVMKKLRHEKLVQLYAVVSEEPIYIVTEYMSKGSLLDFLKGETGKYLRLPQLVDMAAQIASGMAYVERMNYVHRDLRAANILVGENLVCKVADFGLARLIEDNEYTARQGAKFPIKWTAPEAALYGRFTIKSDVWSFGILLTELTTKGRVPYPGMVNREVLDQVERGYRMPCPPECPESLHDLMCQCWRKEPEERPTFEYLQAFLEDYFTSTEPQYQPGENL

| Compound | inhibition at 2 µM (c-Src kinase (human)) | inhibition at 1 µM (HER-2) | IC50 (HER-2) | inhibition at 2 µM (Lyn kinase (human)) | IC50 (EGFR) | inhibition at 2 µM (EGFR) |
| --- | --- | --- | --- | --- | --- | --- |
| O=C(Nc1ccc(CN2CCCCC2)cc1)c1sc2ncnc3c2c1NC(=O)N3c1ccc(Oc2ccccc2)c(Cl)c1 [Cpd 135, 5-(3-chloro-4-phenoxy-phenyl)-4-oxo-4,5-dihydro-3H-1-thia-3,5,6,8-tetraaza-acenaphthylene-2-carboxylic acid (4-piperidin-1-ylmethyl-phenyl)-amide] | 12% | 85% | 90 nM | 46% | 18 nM |  |
| O=C(Nc1ccc(CCN2CCCCC2)cc1)c1sc2ncnc3c2c1NC(=O)N3c1ccc(Oc2ccccc2)c(Cl)c1 [Cpd 136, 5-(3-chloro-4-phenoxy-phenyl)-4-oxo-4,5-dihydro-3H-1-thia-3,5,6,8-tetraaza-acenaphthylene-2-carboxylic acid [4-(2-piperidin-1-yl-ethyl)-phenyl]-amide] | -41% | 70% | 222 nM | 43% | 31 nM |  |
| O=C(NCCCO)c1sc2ncnc3c2c1NC(=O)N3c1ccc(Oc2ccccc2)c(Cl)c1 [Cpd 137, 5-(3-chloro-4-phenoxy-phenyl)-4-oxo-4,5-dihydro-3H-1-thia-3,5,6,8-tetraaza-acenaphthylene-2-carboxylic acid (3-hydroxy-propyl)-amide] | 26% | 48% | 1630 nM | 43% | 30 nM |  |
| O=C(Nc1ccc(CN2CCOCC2)cc1)c1sc2ncnc3c2c1NC(=O)N3c1ccc(Oc2ccccc2)c(Cl)c1 [Cpd 138, 5-(3-chloro-4-phenoxy-phenyl)-4-oxo-4,5-dihydro-3H-1-thia-3,5,6,8-tetraaza-acenaphthylene-2-carboxylic acid (4-morpholin-4-ylmethyl-phenyl)-amide] | 39% |  | 178 nM | 50% | 59 nM |  |
| O=C(Nc1ccc(CN2CCCCC2)cc1)c1sc2ncnc3c2c1NC(=O)N3c1ccc(-c2ccc(Cl)cc2)cc1 [Cpd 139, 5-(4′-chloro-biphenyl-4-yl)-4-oxo-4,5-dihydro-3H-1-thia-3,5,6,8-tetraaza-acenaphthylene-2-carboxylic acid (4-piperidin-1-ylmethyl-phenyl)-amide] | 28% |  | > 100000 nM | 34% |  | 18% |
| O=C(Nc1ccc(CN2CCOCC2)cc1)c1sc2ncnc3c2c1NC(=O)N3c1ccc(-c2ccc(Cl)cc2)cc1 [Cpd 140, 5-(4′-chloro-biphenyl-4-yl)-4-oxo-4,5-dihydro-3H-1-thia-3,5,6,8-tetraaza-acenaphthylene-2-carboxylic acid (4-morpholin-4-ylmethyl-phenyl)-amide] | 25% |  | > 100000 nM | 43% |  | 20% |
| NCCCNC(=O)c1sc2ncnc3c2c1NC(=O)N3c1ccc2c(ccn2Cc2cccc(F)c2)c1 [Cpd 142, 5-[1-(3-fluoro-benzyl)-1H-indol-5-yl]-4-oxo-4,5-dihydro-3H-1-thia-3,5,6,8-tetraaza-acenaphthylene-2-carboxylic acid (3-amino-propyl)-amide] | 10% |  | 381 nM | 39% | 11 nM |  |
| COc1cc(NC(=O)c2sc3ncnc4c3c2NC(=O)N4c2ccc(F)cc2Cl)ccc1OCCN1CCCCC1 [Cpd 144, 5-(2-chloro-4-fluoro-phenyl)-4-oxo-4,5-dihydro-3H-1-thia-3,5,6,8-tetraaza-acenaphthylene-2-carboxylic acid [3-methoxy-4-(2-piperidin-1-yl-ethoxy)-phenyl]-amide] | 67% | 18% |  | 84% | 330 nM |  |
| O=C(Nc1ccc(CN2CCCCC2)cc1)c1sc2ncnc3c2c1NC(=O)N3c1ccc(F)cc1Cl [Cpd 145, 5-(2-chloro-4-fluoro-phenyl)-4-oxo-4,5-dihydro-3H-1-thia-3,5,6,8-tetraaza-acenaphthylene-2-carboxylic acid (4-piperidin-1-ylmethyl-phenyl)-amide] | 50% | 54% | 4230 nM | 83% | 166 nM |  |
| Cc1cccc(Cl)c1N1C(=O)Nc2c(C(=O)Nc3ccc(CN4CCOCC4)cc3)sc3ncnc1c23 [Cpd 146, 5-(2-chloro-6-methyl-phenyl)-4-oxo-4,5-dihydro-3H-1-thia-3,5,6,8-tetraaza-acenaphthylene-2-carboxylic acid (4-morpholin-4-ylmethyl-phenyl)-amide] | 45% | 21% |  | 65% |  | 37% |
| Cc1cccc(Cl)c1N1C(=O)Nc2c(C(=O)Nc3ccc(CN4CCCCC4)cc3)sc3ncnc1c23 [Cpd 147, 5-(2-chloro-6-methyl-phenyl)-4-oxo-4,5-dihydro-3H-1-thia-3,5,6,8-tetraaza-acenaphthylene-2-carboxylic acid (4-piperidin-1-ylmethyl-phenyl)-amide] | 61% | 17% |  | 76% |  | 43% |
| Cc1cccc(Cl)c1N1C(=O)Nc2c(C(=O)Nc3ccc(C(O)CN4CCOCC4)cc3)sc3ncnc1c23 (stereo not drawn) [Cpd 148, 5-(2-chloro-6-methyl-phenyl)-4-oxo-4,5-dihydro-3H-1-thia-3,5,6,8-tetraaza-acenaphthylene-2-carboxylic acid [4-(1-hydroxy-2-morpholin-4-yl-ethyl)-phenyl]-amide] | 53% | 30% |  | 59% |  | 38% |
| O=C(Nc1ccc(CN2CCOCC2)cc1)c1sc2ncnc3c2c1NC(=O)N3c1ccccc1Cl [Cpd 149, 5-(2-chloro-phenyl)-4-oxo-4,5-dihydro-3H-1-thia-3,5,6,8-tetraaza-acenaphthylene-2-carboxylic acid (4-morpholin-4-ylmethyl-phenyl)-amide] | 54% | 53% | 2540 nM | 72% | 187 nM |  |
| O=C(Nc1ccc(CN2CCCCC2)cc1)c1sc2ncnc3c2c1NC(=O)N3c1ccccc1Cl [Cpd 150, 5-(2-chloro-phenyl)-4-oxo-4,5-dihydro-3H-1-thia-3,5,6,8-tetraaza-acenaphthylene-2-carboxylic acid (4-piperidin-1-ylmethyl-phenyl)-amide] | 52% | 18% |  | 77% | 170 nM |  |
| CN1CCN(Cc2ccc(NC(=O)c3sc4ncnc5c4c3NC(=O)N5c3ccccc3Cl)cc2)CC1 [Cpd 151, 5-(2-chloro-phenyl)-4-oxo-4,5-dihydro-3H-1-thia-3,5,6,8-tetraaza-acenaphthylene-2-carboxylic acid [4-(4-methyl-piperazin-1-ylmethyl)-phenyl]-amide] | 53% | 29% |  | 61% | 603 nM |  |
| O=C1Nc2csc3ncnc(c23)N1c1ccc2c(ccn2Cc2cccc(F)c2)c1 [Cpd 152, 5-[1-(3-fluoro-benzyl)-1H-indol-5-yl]-3H,5H-1-thia-3,5,6,8-tetraaza-acenaphthylen-4-one] | -6% |  | 3720 nM | 7% | 333 nM |  |
| O=C(Nc1ccc(CN2CCOCC2)cc1)c1sc2ncnc3c2c1NC(=O)N3c1ccc(F)c(Br)c1 [Cpd 153, 5-(3-bromo-4-fluoro-phenyl)-4-oxo-4,5-dihydro-3H-1-thia-3,5,6,8-tetraaza-acenaphthylene-2-carboxylic acid (4-morpholin-4-ylmethyl-phenyl)-amide] | 16% | 70% | 294 nM | -4% | 159 nM |  |
| O=C(NCCCO)c1sc2ncnc3c2c1NC(=O)N3c1ccc(F)c(Br)c1 [Cpd 154, 5-(3-bromo-4-fluoro-phenyl)-4-oxo-4,5-dihydro-3H-1-thia-3,5,6,8-tetraaza-acenaphthylene-2-carboxylic acid (3-hydroxy-propyl)-amide] | 8% | 12% | > 10000 nM | 7% | 592 nM |  |
| O=C(Nc1ccc(CN2CCCCC2)cc1)c1sc2ncnc3c2c1NC(=O)N3c1ccc(F)c(Br)c1 [Cpd 155, 5-(3-bromo-4-fluoro-phenyl)-4-oxo-4,5-dihydro-3H-1-thia-3,5,6,8-tetraaza-acenaphthylene-2-carboxylic acid (4-piperidin-1-ylmethyl-phenyl)-amide] | 18% | 88% | 327 nM | 41% | 28 nM |  |
